Experimental data from US10000479B2, “Compounds and their methods of use” (AGIOS PHARMACEUTICALS, INC., priority 2014, dated 2018).

Molecular target: T1, glutaminase (GAC) (Homo sapiens, UniProt O94925)
T1 sequence (O94925 55-598 isoform O94925-3 limits assumed): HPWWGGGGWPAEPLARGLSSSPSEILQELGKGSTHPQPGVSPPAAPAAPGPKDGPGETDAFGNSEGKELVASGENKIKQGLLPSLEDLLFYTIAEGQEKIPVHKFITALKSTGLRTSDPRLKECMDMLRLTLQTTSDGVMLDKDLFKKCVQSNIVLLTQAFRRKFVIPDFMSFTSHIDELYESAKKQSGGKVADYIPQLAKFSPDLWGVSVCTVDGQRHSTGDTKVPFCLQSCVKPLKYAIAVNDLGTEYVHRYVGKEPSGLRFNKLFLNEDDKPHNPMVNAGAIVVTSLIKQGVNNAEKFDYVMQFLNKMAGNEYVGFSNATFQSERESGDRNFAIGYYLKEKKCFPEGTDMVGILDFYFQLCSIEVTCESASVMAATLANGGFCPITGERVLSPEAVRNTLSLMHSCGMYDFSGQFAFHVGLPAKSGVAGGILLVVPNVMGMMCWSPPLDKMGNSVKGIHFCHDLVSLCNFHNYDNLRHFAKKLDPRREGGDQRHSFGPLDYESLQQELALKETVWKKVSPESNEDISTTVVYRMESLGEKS
Assay: glutaminase coupled endpoint assay (Example A)
Type: biochemical
Settings: inhibition of glutaminase; assay of Example A or Example B
Protocol: In this example, the enzymatic activity of glutaminase is measured through a coupled endpoint assay. Glutamine and phosphate are supplied to GAC at a concentration equal to Km and AC50, respectively, and GAC concentration is adjusted to give a linear reaction for 60 minutes. The glutamate produced is converted to 2-OG by a kinetic excess of glutamate dehydrogenase. This second step is configured for 2× Km for NAD, since excess NAD is inhibitory. However, a kinetic excess of the third coupling enzyme, diaphorase, recycles NAD from NADH to keep the NAD concentration constant during the timecourse of the assay. Diaphorase, also supplied in kinetic excess, oxidizes NADH produced by GDH back to NAD with the concomitant reduction of rezasurin to the highly fluorescent resorufin. Resorufin in measured after the assay is stopped with SDS by Ex544/Em590. A reduction in the signal indicates inhibition of some component of the coupled enzyme system. Prospective hits are counterscreened against GDH/diaphorase alone to remove hits to the coupling enzyme system in a second assay.
2. Buffers • 2× Buffer (300 mM NaCl, 100 mM HEPES pH 8.5, 0.1% BSA, 0.5 mM EDTA, 100 mM sodium phosphate pH 8.5) • 5× Substrate Mix (1× Buffer final concentration, with 13 mM glutamine, 100 μM resazurin, 50 μg/ml diaphorase) • 1.2× Enzyme Mix (1× Buffer final concentration, with 0.875 μg/ml GAC, 1.56 mM NAD, 6.25 units/ml GDH) • Stop Mix (6% SDS in ddH20) Reaction Procedure • 1. Add 1 μl compound in 100% DMSO • 2. Add 40 μl of Enzyme Mix and incubate for 60 minute at room temperature • 3. Add 10 μl of Substrate Mix to start reaction • 4. Stop reaction with 25 μl of 6% SDS and read Ex544 Em 590
A compound described herein may be tested for its ability to inhibit glutaminase, e.g., by an assay as described in the Examples. For simplicity, the inhibition activity of these compounds is represented as an IC50 tested in an assay of Example A or Example B in Table 1. As shown, “A” refers to an inhibitor of glutaminase with an IC50<100 nM. “B” refers to inhibitor of glutaminase with an IC50 between 100 nM and 500 nM. “C” refers to inhibitor of glutaminase with an IC50 between 500 nM and 1000 nM. “D” refers to inhibitor of glutaminase with an IC50 between 1 μM and 2 μM. “E” refers to inhibitor of glutaminase with an IC50 between 2 μM and 10 μM. “N/A” refers to compounds wherein the IC50 is unavailable.

| Compound | IC50 [nM] |
| --- | --- |
| CC(=O)Nc1ccc([C@@H]2CCC[C@H](c3ccc(NC(C)=O)nn3)C2)nn1 [Compound 99, N,N′-(6,6′-((1R,3S)-Cyclohexane-1,3-diyl)bis(pyridazine-6,3-diyl))diacetamide] | < 100 |
| CCCC(=O)Nc1ccc([C@@H]2CCC[C@H](c3ccc(NC(=O)CCC)nn3)C2)nn1 [Compound 37, N,N′-(6,6′-((1R,3S)-Cyclohexane-1,3-diyl)bis(pyridazine-6,3-diyl))dibutyramide] | < 100 |
| O=C(Cc1ccccc1)Nc1ccc([C@H]2CCC[C@@H](c3nnc(NC(=O)Cc4ccccc4)s3)C2)nn1 [Compound 291, 2-Phenyl-N-(6-((1S,3R)-3-(5-(2-phenylacetamido)-1,3,4-thiadiazol-2-yl)cyclohexyl)pyridazin-3-yl)acetamide] | < 100 |
| CC(=O)Nc1ccc([C@H]2CCC[C@H](c3ccc(NC(C)=O)nn3)C2)nn1 (racemic) [Compound 41, Trans-(rac)-N,N′-(6,6′-(cyclohexane-1,3-diyl)bis(pyridazine-6,3-diyl))diacetamide] | 2000 to 10000 |
| O=C(Cc1ccccn1)Nc1ccc(C2CCC(c3ccc(NC(=O)Cc4ccccn4)nn3)C2)nn1 (stereo not shown) [Compound 175, N, N′-(6,6′-(Cyclopentane-1,3-diyl)bis(pyridazine-6,3-diyl))bis(2-(pyridin-2-yl)acetamide)] | < 100 |
| O=C(Cc1cccc(OC(F)(F)F)c1)Nc1ccc([C@@H]2CCC[C@H](c3ccc(NC(=O)Cc4cccc(OC(F)(F)F)c4)nn3)C2)nn1 [Compound 180] | 100 to 500 |
| O=C(Cc1ccccn1)Nc1ccc([C@@H]2CCC[C@H](c3ccc(NC(=O)Cc4ccccn4)nn3)C2)nn1 [Compound 20, N,N′-(6,6′-((1R,3S)-Cyclohexane-1,3-diyl)bis(pyridazine-6,3-diyl))bis(2-(pyridin-2-yl)acetamide)] | < 100 |
| CC(C)C(=O)Nc1ccc([C@@H]2CCC[C@H](c3ccc(NC(=O)C(C)C)nn3)C2)nn1 [Compound 98, N,N′-(6,6′-((1R,3S)-Cyclohexane-1,3-diyl)bis(pyridazine-6,3-diyl))bis(2-methylpropanamide)] | 100 to 500 |
| CCC(=O)Nc1ccc([C@@H]2CCC[C@H](c3ccc(NC(=O)CC)nn3)C2)nn1 [Compound 152, N,N′-(6,6′-((1R,3S)-Cyclohexane-1,3-diyl)bis(pyridazine-6,3-diyl))dipropionamide] | < 100 |
| O=C(Cc1ccc(OC(F)(F)F)cc1)Nc1ccc([C@H]2CCC[C@H](c3ccc(NC(=O)Cc4ccc(OC(F)(F)F)cc4)nn3)C2)nn1 (racemic) [Compound 75, Trans-(rac)-N,N′-(6,6′-(cyclohexane-1,3-diyl)bis(pyridazine-6,3-diyl))bis(2-(4-(trifluoromethoxy)phenyl)acetamide)] | 2000 to 10000 |
| O=C(Nc1ccc([C@@H]2CCC[C@H](c3ccc(NC(=O)OCc4ccccc4)nn3)C2)nn1)OCc1ccccc1 [Compound 176, Dibenzyl (6,6′-((1R,3S)-cyclohexane-1,3-diyl)bis(pyridazine-6,3-diyl))dicarbamate] | < 100 |
| O=C(Cc1ccccc1)Nc1ccc([C@@H]2CCC[C@H](c3ccc(NC(=O)Cc4ccccc4)nn3)C2)nn1 [Compound 10, N,N′-(6,6′-((1R,3S)-cyclohexane-1,3-diyl)bis(pyridazine-6,3-diyl))bis(2-phenylacetamide)] | < 100 |
| O=C(Cc1ccccn1)Nc1ccc([C@@H]2CCC[C@@H](c3ccc(NC(=O)Cc4ccccn4)nn3)C2)nn1 (racemic) [Compound 14, Trans-(rac)-N,N′-(6,6′-(cyclohexane-1,3-diyl)bis(pyridazine-6,3-diyl))bis(2-(pyridin-2-yl)acetamide)] | < 100 |
